Values quoted from earlier work as cited in paper PMC8730323 (The Journal of organic chemistry, 2021).

What was measured:
HL-60 cell line = conditions: read-out: IC50 against HL-60 cell line; leukemia cells
NCL-H460 cell line = conditions: read-out: IC50 against human lung cancer NCL-H460 cell line

Row | IC50 (HL-60 cell line) [µM] | IC50 (NCL-H460 cell line) [µM] | Molecule | Toxicity to normal cells compared with cancer cells (in words) (normal cells)
1 | 3.2 | – | Cc1c(O)cc(C[C@]23C[C@H](C[C@H](C)O2)c2c4c(c(O)c(C)c2O3)CO[C@@]2(C4)C[C@@H](O)C[C@H](C)O2)c(C=O)c1O [(+)-1, (+)-peniciketal A] | less toxic
2 | – | 20.2 | (−)-diocollettines A [(−)-5] | –
